Assays:
Type in all cases: cell-based
MRGPRX2 [1] = biological target: T1, MRGPRX2 (Homo sapiens, UniProt Q96LB1); assay: MRGPRX2 IP1 HTRF Assay; parameters: host or cells: CHO-K1; conditions: CHO-K1 cells stably expressing human MRGPRX2; IP1 accumulation; agonist Cortistatin 14 1 μM
T1 sequence (Q96LB1 1-330): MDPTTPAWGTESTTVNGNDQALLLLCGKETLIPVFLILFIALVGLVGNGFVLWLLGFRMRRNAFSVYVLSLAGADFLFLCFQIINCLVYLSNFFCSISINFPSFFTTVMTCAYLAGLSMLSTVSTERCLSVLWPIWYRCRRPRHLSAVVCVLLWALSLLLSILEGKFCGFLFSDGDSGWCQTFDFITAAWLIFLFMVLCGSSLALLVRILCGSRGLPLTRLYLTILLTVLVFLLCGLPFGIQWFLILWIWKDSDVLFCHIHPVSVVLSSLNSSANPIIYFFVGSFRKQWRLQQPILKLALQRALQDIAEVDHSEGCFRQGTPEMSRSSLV
Source text: Example B: MRGPRX2 IP1 HTRF Assay
This assay measures compound inhibition of myo-Inositol 1 phosphate (IP1) accumulation in CHO-K1 cells. Chinese hamster ovary (CHO-K1) cells stably expressing human MRGPRX2 were purchased from GenScript (Piscataway, NJ).
For the HTRF IP1 determination, an IP-One GqKit (Perkin Elmer Cisbio, Waltham, MA), which includes all reagents and buffers in this protocol, was used. The cells were maintained in culture medium (Ham's F-12K) containing 10% (v/v) FBS, and 200 μg/mL Zeocin. For the assay, the cells were harvested and resuspended in culture medium with 2% FBS and without Zeocin, then were passed through a 40 μm filter. Cells were added at 20000 cells in a 5 μL/well to a 384-well white small volume cell culture plate (Greiner VWR, Radnor, PA) which contained 50 nL/well of test compound serially diluted at a selected concentration range in DMSO. 5 μL/well of prepared 2× Stimulation Buffer2 was then added to plates and was incubated at 37° C. with 5% CO2 for 1 h. 5 μL/well of agonist Cortistatin 14 (Bio-TechneR&D Systems, Minneapolis, MN) in 1× Stimulation Buffer 2, for a 1 μM final concentration, was then added to plates and incubated at 37° C. with 5% CO2 for 1 h. 6 μL/well of 1:20 diluted Detection Reagent Mix (d2 and Cryptate) was added to the plates and incubated for 1 h in the dark. Plates were read on the PHERAstar microplate reader (BMG Labtech Cary, NC) to determine the HTRF ratio of the acceptor and donor emission signals. The IP1 concentrations were calculated from a standard curve following the IP-One GQ kit instructions. Wells with DMSO only and wells with high concentration of reference antagonist were used as controls for normalization. Compound IC50 curves were globally fitted with 3- or 4-parameter Hill equation in a Genedata Screener (Genedata Basel, Switzerland).

MRGPRX2 [2] = biological target: T1, MRGPRX2; assay: MRGPRX2 β-Arrestin Assay; parameters: host or cells: PathHunter CHO-K1; conditions: PathHunter CHO-K1 MRGPRX2 β-Arrestin cell line; agonist Cortistatin 14 0.25 μM
Source text: Example C: MRGPRX2 β-Arrestin Assay
This assay measures compound inhibition of β-Arrestin recruitment, which is part of the G protein-independent pathway that results from the ligand-activated GPCR phosphorylation by specific GPCR kinases. The PathHunter CHO-K1 MRPGRX2 B-Arrestin Cell line stably expressing ProLink tagged MRGPRX2 and Enzyme Acceptor Tagged B-Arrestin was purchased from Eurofins DiscoverX, (Fremont, CA).
The cells were maintained in culture medium from the Europhins DiscoverX Cell Culture Kit-107 which includes FBS, hygromycin B and G418. For the assay, the cells were harvested and were resuspended with Cell Plating Reagent 2 (Eurofins DiscoverX). Cells were added 10000 cells in 25 μL/well to a 384-well black cell culture plate (Greiner VWR, Radnor, PA) which contained 125 nL/well of compound at a selected serially diluted concentration range or DMSO. The plate was incubated at 37° C. with 5% CO2 for 1 h. 2 μL/well of agonist Cortistatin 14 was diluted in Protein Dilution Buffer, (Eurofins DiscoverX) for a final concentration of 0.25 μM, was added and the plate was incubated at 37° C. with 5% CO2 for 90 min. 14 μL/well of Detection Reagent Mix (PathHunter Detection Kit, Eurofins DiscoverX) was added to the plates and further incubated for 1 h in the dark. Plates were read on the PHERAstar microplate reader (BMG Labtech Cary, NC) measuring luminescence 0.1 to 1 s per well. Data was normalized using DMSO only wells and wells with high concentration of reference antagonist as controls. Compound IC50 curves were globally fitted with 3- or 4-parameter Hill equation in a Genedata Screener (Genedata Basel, Switzerland).

MRGPRX2 [3] = biological target: T1, MRGPRX2; assay: MRGPRX2 FLIPR Calcium Mobilization Assay; parameters: host or cells: CHO-K1; conditions: CHO-K1 cells stably expressing human MRGPRX2; Ca2+ release; agonist Cortistatin-14 at EC80
Protocol: Example A. MRGPRX2 FLIPR Calcium Mobilization Assay
Chinese hamster ovary (CHO-K1) cells stably expressing human MRGPRX2 were purchased from Genescript (Piscataway, NJ). The cells were maintained in culture medium (Ham's F-12K) containing 10% (v/v) FBS, 200 μg/mL Zeocin, 100 units/mL penicillin G and 100 μg/mL streptomycin (Life Technologies, Carlsbad, CA). For the assay, the cells were harvested and resuspended with culture medium without Zeocin before plating at 8000 cells per well in 20 μL in 384-well black clear bottom cell culture plates (VWR, Radnor, PA). After 24 hour culture at 37° C. and 5% CO2, the cells were loaded with 20 μL/well of calcium dye (FLIPR Calcium 6 Assay Kit, Molecular Devices, San Jose, CA) diluted in loading buffer (1× Hank's Balanced Salt Solution (HBSS), 5 mM probenecid, 20 mM 4-(2-hydroxyethyl)-1-piperazineethanesulfonic acid (HEPES), pH 7.4, VWR, Radnor, PA) followed with 45 min incubation at 37° C. and 40 min. at r.t. in the dark. Cells were then treated with the addition of 10 uL/well test compounds with a range of increasing concentrations diluted in the assay buffer (1×HBSS, 20 mM HEPES, pH 7.4, VWR, Radnor, PA) with FLIPR Penta (Molecular Devices. San Jose, CA) and incubated for 30 min. at r.t. Ca^2+ release was measured with FLIPR Penta with 10 s basal fluorescence measurement, then 12.5 μL of 5× agonist Cortistatin-14 (Tocris, Minneapolis, MN) at final concentration corresponding to the EC80 were added followed with continued fluorescence signal monitoring for an additional 110 s. The base line adjusted (median of first 10s base line) max value of the Relative Fluorescence Unit (RFU) was plotted against compound concentrations. Wells with no compound were served as the positive controls, and wells with high concentration of reference antagonist were used as negative controls. IC50 curves were globally fitted with 3- or 4-parameter Hill equation in a Genedata Screener (Genedata Basel, Switzerland).

Structure (SMILES) | IC50 (MRGPRX2 [1]) | IC50 (MRGPRX2 [2]) | IC50 (MRGPRX2 [3])
CC(c1cc2ncc(Oc3ccc(F)cc3F)cc2cn1)N1CCC(F)(F)CC1 (stereo not shown) [Example 1, 3-(2,4-Difluorophenoxy)-7-(1-(4,4-difluoropiperidin-1-yl)ethyl)-1,6-naphthyridine] | 100 to 1000 nM | 100 to 1000 nM | 0.1 to 100 nM
CC(c1cc2ncc(Oc3ccc(F)cc3F)cc2cn1)N1CCCC(F)(F)C1 (stereo not shown) [Example 2, 3-(2,4-Difluorophenoxy)-7-(1-(3,3-difluoropiperidin-1-yl)ethyl)-1,6-naphthyridine] | 100 to 1000 nM |  | 0.1 to 100 nM
CC1(C)CN(C(c2cc3ncc(Oc4ccc(F)cc4F)cc3cn2)C(F)(F)F)CCO1 (stereo not shown) [Example 8, 4-(1-(3-(2,4-Difluorophenoxy)-1,6-naphthyridin-7-yl)-2,2,2-trifluoroethyl)-2,2-dimethylmorpholine] |  | 0.1 to 100 nM | 0.1 to 100 nM
CC1(CO)CCCN(C(c2cc3ncc(Oc4ccc(F)cc4F)cc3cn2)C(F)(F)F)C1 (stereo not shown) [Example 9, (1-(1-(3-(2,4-Difluorophenoxy)-1,6-naphthyridin-7-yl)-2,2,2-trifluoroethyl)-3-methylpiperidin-3-yl)methanol] |  | 0.1 to 100 nM | 0.1 to 100 nM
N#CC1CCCN(C(c2cc3ncc(Oc4ccc(F)cc4F)cc3cn2)C(F)(F)F)C1 (stereo not shown) [Example 10, 1-(1-(3-(2,4-Difluorophenoxy)-1,6-naphthyridin-7-yl)-2,2,2-trifluoroethyl)piperidine-3-carbonitrile] |  | 0.1 to 100 nM | 0.1 to 100 nM
Fc1ccc(Oc2cnc3cc(C(N4CC5CCC4C5)C(F)(F)F)ncc3c2)c(F)c1 (stereo not shown) [Example 11, 7-(1-(2-Azabicyclo[2.2.1]heptan-2-yl)-2,2,2-trifluoroethyl)-3-(2,4-difluorophenoxy)-1,6-naphthyridine] |  | 100 to 1000 nM | 
OC[C@@H]1CCCN1C(c1cc2ncc(Oc3ccc(F)cc3F)cc2cn1)C(F)(F)F (stereo partly drawn) [Example 13, ((2S)-1-(1-(3-(2,4-Difluorophenoxy)-1,6-naphthyridin-7-yl)-2,2,2-trifluoroethyl)pyrrolidin-2-yl)methanol] |  | 0.1 to 100 nM | 0.1 to 100 nM
O=c1ccc(C2CN(C(c3cc4ncc(Oc5ccc(F)cc5F)cc4cn3)C(F)(F)F)CCC2(F)F)c[nH]1 (stereo not shown) [Example 17, 5-(1-(1-(3-(2,4-Difluorophenoxy)-1,6-naphthyridin-7-yl)-2,2,2-trifluoroethyl)-4,4-difluoropiperidin-3-yl)pyridin-2(1H)-one] | 0.1 to 100 nM | 0.1 to 100 nM | 
Fc1ccc(Oc2cnc3cc(C(N4CC(F)(F)CC4c4ccccc4)C(F)(F)F)ncc3c2)c(F)c1 (stereo not shown) [Example 18, 7-(1-(4,4-Difluoro-2-phenylpyrrolidin-1-yl)-2,2,2-trifluoroethyl)-3-(2,4-difluorophenoxy)-1,6-naphthyridine] | 0.1 to 100 nM | 0.1 to 100 nM | 
Fc1ccc(Oc2cnc3cc(C(N4CCC(F)(F)C4c4ccccc4)C(F)(F)F)ncc3c2)c(F)c1 (stereo not shown) [Example 19, 7-(1-(3,3-Difluoro-2-phenylpyrrolidin-1-yl)-2,2,2-trifluoroethyl)-3-(2,4-difluorophenoxy)-1,6-naphthyridine] | 0.1 to 100 nM | 0.1 to 100 nM | 
O=c1ccc(C2CCCN2C(c2cc3ncc(Oc4ccc(F)cc4F)cc3cn2)C(F)(F)F)c[nH]1 (stereo not shown) [Example 20, 5-(1-(1-(3-(2,4-Difluorophenoxy)-1,6-naphthyridin-7-yl)-2,2,2-trifluoroethyl)pyrrolidin-2-yl)pyridin-2(1H)-one] | 0.1 to 100 nM | 0.1 to 100 nM | 
CC1(O)CCCN(C(c2cc3ncc(Oc4ccc(F)cc4F)cc3cn2)C(F)F)C1 (stereo not shown) [Example 21, 1-(1-(3-(2,4-Difluorophenoxy)-1,6-naphthyridin-7-yl)-2,2-difluoroethyl)-3-methylpiperidin-3-ol] |  | 0.1 to 100 nM | 0.1 to 100 nM
Fc1ccc(Oc2cnc3cc(C(C(F)F)N4CCC(F)(F)CC4)ncc3c2)c(F)c1 (stereo not shown) [Example 22, 3-(2,4-Difluorophenoxy)-7-(1-(4,4-difluoropiperidin-1-yl)-2,2-difluoroethyl)-1,6-naphthyridine] |  | 0.1 to 100 nM | 0.1 to 100 nM
Fc1ccc(Oc2cnc3cc(C(C(F)F)N4CCCC(c5ccn[nH]5)C4)ncc3c2)c(F)c1 (stereo not shown) [Example 23, 7-(1-(3-(1H-Pyrazol-5-yl)piperidin-1-yl)-2,2-difluoroethyl)-3-(2,4-difluorophenoxy)-1,6-naphthyridine] |  | 0.1 to 100 nM | 0.1 to 100 nM
NC(=O)[C@@H]1CCCN1C(c1cc2ncc(Oc3ccc(F)cc3F)cc2cn1)C(F)F (stereo partly drawn) [Example 24, (2S)-1-(1-(3-(2,4-Difluorophenoxy)-1,6-naphthyridin-7-yl)-2,2-difluoroethyl)pyrrolidine-2-carboxamide] |  | 0.1 to 100 nM | 0.1 to 100 nM
Fc1ccc(Oc2cnc3cc(C(C(F)F)N4CCCC4c4ccccc4)ncc3c2)c(F)c1 (stereo not shown) [Example 25, 7-(2,2-Difluoro-1-(2-phenylpyrrolidin-1-yl)ethyl)-3-(2,4-difluorophenoxy)-1,6-naphthyridine] |  | 0.1 to 100 nM | 0.1 to 100 nM
O=c1ccc(C2CN(C(c3cc4ncc(Nc5ccc(F)cc5F)cc4cn3)C(F)(F)F)CCC2(F)F)c[nH]1 (stereo not shown) [Example 26, 5-(1-(1-(3-((2,4-Difluorophenyl)amino)-1,6-naphthyridin-7-yl)-2,2,2-trifluoroethyl)-4,4-difluoropiperidin-3-yl)pyridin-2(1H)-one] |  | > 1000 nM | 
O=c1ccc(C2CN(C(c3cc4ncc(Cc5ccccc5)cc4cn3)C(F)(F)F)CCC2(F)F)c[nH]1 (stereo not shown) [Example 27, 5-(1-(1-(3-Benzyl-1,6-naphthyridin-7-yl)-2,2,2-trifluoroethyl)-4,4-difluoropiperidin-3-yl)pyridin-2(1H)-one] |  | > 1000 nM | 

Source: patent US20250206734A1, “BICYCLIC HETEROCYCLES AS MRGPRX2 ANTAGONISTS” (Incyte Corporation, priority 2023, published 2025)
